Source: patent US11873298B2, “Compounds and uses thereof” (JANSSEN PHARMACEUTICA NV, priority 2017, dated 2024)

Columns and labels:
SCD5 = target: T1, SCD5 (Homo sapiens, UniProt Q86SK9); assay: Growth inhibition of humanized yeast strain expressing SCD5 as sole desaturase; format: cell-based
T1 construct: host or cells: S. cerevisiae ole1Δ strain (W303 pdr1Δ pdr3Δ background), plasmid pRS316 with TDH3 promoter and CYC1 terminator
T1 sequence (Q86SK9 1-330): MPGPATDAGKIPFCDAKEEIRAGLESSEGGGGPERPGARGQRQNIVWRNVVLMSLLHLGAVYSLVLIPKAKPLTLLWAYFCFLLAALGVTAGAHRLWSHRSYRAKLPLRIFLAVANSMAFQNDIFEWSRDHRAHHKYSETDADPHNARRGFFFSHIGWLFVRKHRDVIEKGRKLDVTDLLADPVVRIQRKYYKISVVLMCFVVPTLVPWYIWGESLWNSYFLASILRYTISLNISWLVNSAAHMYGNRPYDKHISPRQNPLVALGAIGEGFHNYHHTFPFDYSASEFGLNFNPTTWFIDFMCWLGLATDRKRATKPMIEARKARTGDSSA
Summary of the method: (§1)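 ole1Δ yeast (W303 pdr1Δ pdr3Δ background) carrying plasmid-borne Ole1, SCD1 or SCD5, grown in uracil-free media; cultures pre-grown in raffinose, seeded at 2× density 0.02 in galactose media with compound. Growth read as OD600 after 24 h at 30° C. for Ole1, 40 h for SCD1/SCD5.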

SCD1 = target: T2, SCD1 (Homo sapiens, UniProt O00767); assay: Growth inhibition of humanized yeast strain expressing SCD1 as sole desaturase; format: cell-based
T2 construct: host or cells: S. cerevisiae ole1Δ strain (W303 pdr1Δ pdr3Δ background), plasmid pRS316 with TDH3 promoter and CYC1 terminator
T2 sequence (O00767 1-359): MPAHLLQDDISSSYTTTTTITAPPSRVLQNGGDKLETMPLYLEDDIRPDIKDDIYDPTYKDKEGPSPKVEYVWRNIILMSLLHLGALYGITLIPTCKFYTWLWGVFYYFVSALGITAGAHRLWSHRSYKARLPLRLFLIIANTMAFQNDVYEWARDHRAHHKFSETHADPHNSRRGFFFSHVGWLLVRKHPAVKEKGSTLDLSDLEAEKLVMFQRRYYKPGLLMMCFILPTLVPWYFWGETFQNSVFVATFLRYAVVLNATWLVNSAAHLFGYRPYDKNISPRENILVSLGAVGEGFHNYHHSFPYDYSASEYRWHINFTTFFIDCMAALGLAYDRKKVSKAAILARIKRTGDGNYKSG
Summary of the method: as §1

[1] = growth inhibition of humanized yeast strain expressing human SCD5
[2] = growth inhibition of humanized yeast strain expressing human SCD1
[3] = humanized yeast strain expressing SCD5
[4] = humanized yeast strain expressing SCD1

| SMILES | IC50 (SCD5; humanized yeast strain, 40 h) [µM] | IC50 (SCD1; humanized yeast strain, 40 h) [µM] | further results |
| --- | --- | --- | --- |
| CC(C)n1ncc2ccc(-c3noc(C4CCN(C(=O)N5CCCC5C#N)CC4)n3)cc21 (centres unmarked) [Compound 666] | – | – | IC50 (SCD5; [1]): > 45 µM; IC50 (SCD1; [2]): > 45 µM |
| CCC(=O)N1CCC(c2noc(-c3ccccc3N3CCOCC3)n2)CC1 [Compound 1168] | > 45 | > 45 | – |
| COC(=O)N1CCN(c2noc(-c3cccc(OC4COC4)c3)n2)CC1 [Compound 1013] | 0.367 | > 45 | – |
| O=C(C1CC12CC2)N1CCN(c2nnc(-c3ccc4cnn(C5COC5)c4c3)o2)CC1 (centres unmarked) [Compound 991] | > 45 | > 45 | – |
| O=C(c1sccc1Cl)N1CCC(c2noc(-c3ccc4cnn(C5COC5)c4c3)n2)CC1 [Compound 698] | – | – | IC50 (SCD5; [1]): 0.026 µM; IC50 (SCD1; [2]): > 45 µM |
| CC(C)C(=O)N1CCC(c2noc(-c3ccccc3N3CCOCC3)n2)CC1 [Compound 1167] | > 45 | > 45 | – |
| COC(=O)N1CCC(c2noc(-c3ccnc(C4CCCO4)c3)n2)CC1 (centres unmarked) [Compound 973] | > 45 | > 45 | – |
| CCC1(C(=O)N2CCC(c3noc(-c4ccc5cnn(C6COC6)c5c4)n3)CC2)CC1 [Compound 964] | 0.03 | 0.31 | – |
| CC(C)n1ncc2ccc(-c3noc(C4CCN(C(=O)C56CCC(F)(CC5)CC6)CC4)n3)cc21 [Compound 755] | 5.41 | > 45 | – |
| c1cc2cnn(C3COC3)c2cc1-c1nc(C2CCCNCC2)no1 (centres unmarked) [Compound 863] | > 45 | > 45 | – |
| CC1(OC(=O)N2CCC(c3nnc(-c4ccc5cnn(C6COC6)c5c4)o3)CC2)CCC1 [Compound 981] | 0.045 | > 45 | – |
| CC(C)(C)OC(=O)N1CCC(c2noc(-c3ccc(F)c(N4CCOCC4)c3)n2)CC1 [Compound 1149] | 0.01 | > 45 | – |
| CC(C)n1ncc2ccc(-c3nc(N4CCn5c(Cl)cnc5C4)no3)cc21 [Compound 828] | 0.067 | > 45 | – |
| Cc1nn(C)c2cc(-c3noc([C@H]4CC[C@H](O)CC4)n3)ccc12 [Compound 526] | – | – | IC50 (SCD5; [3]): > 45 µM; IC50 (SCD1; [4]): > 45 µM |
| CC(C)n1ncc2ccc(-c3noc(N4CCN(C(=O)c5cccc(F)c5)CC4)n3)cc21 [Compound 547] | – | – | IC50 (SCD5; [3]): 44.3 µM; IC50 (SCD1; [4]): > 45 µM |
| C=C(F)/C=C/n1cc2ccc(-c3noc(C4CCN(C(=O)OC(C)(C)C)CC4)n3)cc2n1 [Compound 739] | – | – | IC50 (SCD5; [1]): > 45 µM; IC50 (SCD1; [2]): > 45 µM |
| CC(C)n1ncc2ccc(-c3noc(C4CCN(C(=O)CNC(=O)C5CC5)CC4(F)F)n3)cc21 (centres unmarked) [Compound 579] | – | – | IC50 (SCD5; [3]): > 45 µM; IC50 (SCD1; [4]): > 45 µM |
| CC(C)n1ncc2ccc(-c3noc(N4C[C@H]5CN(C(=O)C(C)(C)C)C[C@H]5C4)n3)cc21 [Compound 764] | 16.7 | > 45 | – |
| O=C(C1CCC1)N1CCCN(c2noc(-c3ccc4cnn(C5COC5)c4c3)n2)CC1 [Compound 961] | > 45 | > 45 | – |
| CC(C)(C)OC(=O)N1CCN(c2nnc(-c3ccc4cnn(C5COC5)c4c3)o2)CC1 [Compound 976] | 5.33 | > 45 | – |
| O=C(N1CCC(c2cc(-c3cc4c(cn3)cnn4C3COC3)on2)CC1)C1(F)CC1 [Compound 1110] | 0.01 | > 45 | – |
| CC(C)(C)CC(=O)N1CCC(c2nc(-c3ccc4cn[nH]c4c3)no2)CC1 [Compound 732] | – | – | IC50 (SCD5; [1]): 31.8 µM; IC50 (SCD1; [2]): > 45 µM |
| COC(=O)N1CCC(c2noc(-c3ccc4cnn([C@H]5CCOC5)c4c3)n2)CC1 [Compound 878] | 0.005 | > 45 | – |
| Cc1nn(C)c2cc(-c3noc(C4CCN(C(=O)CNC(=O)c5ccc(C#N)cc5)CC4(F)F)n3)ccc12 (centres unmarked) [Compound 601] | – | – | IC50 (SCD5; [3]): 5.69 µM; IC50 (SCD1; [4]): > 45 µM |
| C=C(C)c1nccn2cc(-c3nc(C4CCN(C(=O)OC(C)(C)C)CC4)no3)cc12 [Compound 888] | 0.01 | > 45 | – |
| CC(=O)N1CC(n2cc3ccc(-c4noc(N5CCN(C(=O)OC(C)(C)C)CC5)n4)cc3n2)C1 [Compound 898] | 0.07 | > 45 | – |
| CCC(=O)N1CCC(c2noc(-c3cc(F)c4cnn(C5COC5)c4c3)n2)CC1 [Compound 1072] | 0.021 | > 45 | – |
| CC(CF)n1ncc2ccc(-c3noc(C4CCN(C(=O)CC(C)(C)C)CC4)n3)cc21 (centres unmarked) [Compound 583] | – | – | IC50 (SCD5; [3]): 0.989 µM; IC50 (SCD1; [4]): > 45 µM |
